Assay results from the supplement of paper PMC10883282.
± gives the standard deviation of the averaged measurements.

How the values were obtained:
Experiment in all cases: relative viability vs DMSO control (72 h) (fraction); higher = more viable cells
SW872 = tested on: SW872
Outline: (§1)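 Sarcoma cell lines went into 384-well plates at densities chosen to reach 80–90% confluence. After 24 h, each well received 2.5 µl of serially diluted compound, with source plates running from 10 mM to 0.0002 mM, and the plates were kept 72 h at 37 °C, 5% CO2, alongside 0.1% DMSO vehicle and a 5 µM positive control. Relative viability was derived from ATPLite readings as percent growth and averaged over up to triplicate wells. The data were then rescaled so that 1 stands for full and 0 for none.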

RD = tested on: RD
Outline: as §1

A204 = tested on: A204
Outline: as §1

VA-ES-BJ = tested on: VA-ES-BJ
Outline: as §1

SYO-1 = tested on: SYO-1
Outline: as §1

HS729 = tested on: HS729
Outline: as §1

KHOS-NP = tested on: KHOS-NP
Outline: as §1

G401 = tested on: G401
Outline: as §1

SK-ES-1 = tested on: SK-ES-1
Outline: as §1

SK-LMS-1 = tested on: SK-LMS-1
Outline: as §1

MES-SA = tested on: MES-SA
Outline: as §1

SW684 = tested on: SW684
Outline: as §1

Cc1cc2c(F)c(Oc3ncnn4cc(OC[C@@H](C)OC(=O)[C@H](C)N)c(C)c34)ccc2[nH]1 [Brivanib_alaninate]
Details	relative viability
A204, 0.00017 µM	1.05 ± 0.0083
A204, 0.00051 µM	1.05 ± 0.056
A204, 0.00152 µM	1.07 ± 0.052
A204, 0.00457 µM	1.11 ± 0.05
A204, 0.01372 µM	1.08 ± 0.04
A204, 0.04115 µM	1.04 ± 0.022
A204, 0.1235 µM	1.03 ± 0.053
A204, 0.3704 µM	1.05 ± 0.048
A204, 1.111 µM	0.999 ± 0.091
A204, 3.333 µM	0.958 ± 0.059
A204, 10 µM	0.567 ± 0.04
G401, 0.00017 µM	0.968 ± 0.025
G401, 0.00051 µM	0.967 ± 0.047
G401, 0.00152 µM	1 ± 0.026
G401, 0.00457 µM	1.01 ± 0.019
G401, 0.01372 µM	0.974 ± 0.01
G401, 0.04115 µM	0.995 ± 0.015
G401, 0.1235 µM	0.982 ± 0.011
G401, 0.3704 µM	0.976 ± 0.07
G401, 1.111 µM	1 ± 0.013
G401, 3.333 µM	0.953 ± 0.0097
G401, 10 µM	0.8674 ± 0.0042
HS729, 0.00017 µM	0.943 ± 0.044
HS729, 0.00051 µM	0.893 ± 0.075
HS729, 0.00152 µM	0.914 ± 0.047
HS729, 0.00457 µM	0.878 ± 0.071
HS729, 0.01372 µM	0.9 ± 0.068
HS729, 0.04115 µM	0.897 ± 0.074
HS729, 0.1235 µM	0.877 ± 0.068
HS729, 0.3704 µM	0.898 ± 0.053
HS729, 1.111 µM	0.923 ± 0.022
HS729, 3.333 µM	0.891 ± 0.064
HS729, 10 µM	0.782 ± 0.066
KHOS-NP, 0.00017 µM	1.04 ± 0.032
KHOS-NP, 0.00051 µM	1.05 ± 0.017
KHOS-NP, 0.00152 µM	1.05 ± 0.022
KHOS-NP, 0.00457 µM	1.06 ± 0.025
KHOS-NP, 0.01372 µM	1.059 ± 0.0083
KHOS-NP, 0.04115 µM	1.07 ± 0.024
KHOS-NP, 0.1235 µM	1.03 ± 0.029
KHOS-NP, 0.3704 µM	1.03 ± 0.02
KHOS-NP, 1.111 µM	1.02 ± 0.015
KHOS-NP, 3.333 µM	0.917 ± 0.067
KHOS-NP, 10 µM	0.6654 ± 0.0056
MES-SA, 0.00017 µM	0.919 ± 0.034
MES-SA, 0.00051 µM	0.939 ± 0.011
MES-SA, 0.00152 µM	0.939 ± 0.021
MES-SA, 0.00457 µM	0.929 ± 0.0099
MES-SA, 0.01372 µM	0.927 ± 0.028
MES-SA, 0.04115 µM	0.911 ± 0.017
MES-SA, 0.1235 µM	0.92 ± 0.04
MES-SA, 0.3704 µM	0.942 ± 0.016
MES-SA, 1.111 µM	0.956 ± 0.021
MES-SA, 3.333 µM	0.829 ± 0.013
MES-SA, 10 µM	0.5146 ± 0.0035
RD, 0.00017 µM	1.07 ± 0.019
RD, 0.00051 µM	1.07 ± 0.029
RD, 0.00152 µM	1.1 ± 0.039
RD, 0.00457 µM	1.09 ± 0.052
RD, 0.01372 µM	1.1 ± 0.044
RD, 0.04115 µM	1.08 ± 0.013
RD, 0.1235 µM	1.09 ± 0.031
RD, 0.3704 µM	1.1 ± 0.05
RD, 1.111 µM	1.12 ± 0.051
RD, 3.333 µM	1.04 ± 0.071
RD, 10 µM	0.874 ± 0.058
SK-ES-1, 0.00017 µM	1.07 ± 0.049
SK-ES-1, 0.00051 µM	1.07 ± 0.028
SK-ES-1, 0.00152 µM	1.06 ± 0.026
SK-ES-1, 0.00457 µM	1.05 ± 0.013
SK-ES-1, 0.01372 µM	1.05 ± 0.012
SK-ES-1, 0.04115 µM	1.03 ± 0.024
SK-ES-1, 0.1235 µM	1.06 ± 0.041
SK-ES-1, 0.3704 µM	1.05 ± 0.016
SK-ES-1, 1.111 µM	1.044 ± 0.0048
SK-ES-1, 3.333 µM	0.991 ± 0.032
SK-ES-1, 10 µM	0.921 ± 0.018
SK-LMS-1, 0.00017 µM	0.967 ± 0.088
SK-LMS-1, 0.00051 µM	0.995 ± 0.055
SK-LMS-1, 0.00152 µM	0.978 ± 0.048
SK-LMS-1, 0.00457 µM	1.01 ± 0.067
SK-LMS-1, 0.01372 µM	1.01 ± 0.035
SK-LMS-1, 0.04115 µM	0.987 ± 0.042
SK-LMS-1, 0.1235 µM	0.989 ± 0.041
SK-LMS-1, 0.3704 µM	0.998 ± 0.044
SK-LMS-1, 1.111 µM	1 ± 0.02
SK-LMS-1, 3.333 µM	0.606 ± 0.0097
SK-LMS-1, 10 µM	0.512 ± 0.014
SW684, 0.00017 µM	1.15 ± 0.01
SW684, 0.00051 µM	1.15 ± 0.013
SW684, 0.00152 µM	1.17 ± 0.028
SW684, 0.00457 µM	1.14 ± 0.033
SW684, 0.01372 µM	1.08 ± 0.021
SW684, 0.04115 µM	1.07 ± 0.02
SW684, 0.1235 µM	1.09 ± 0.027
SW684, 0.3704 µM	1.17 ± 0.02
SW684, 1.111 µM	1.141 ± 0.0023
SW684, 3.333 µM	1.13 ± 0.025
SW684, 10 µM	1.19 ± 0.072
SW872, 0.00017 µM	0.98 ± 0.023
SW872, 0.00051 µM	0.967 ± 0.034
SW872, 0.00152 µM	0.991 ± 0.033
SW872, 0.00457 µM	0.988 ± 0.048
SW872, 0.01372 µM	0.968 ± 0.048
SW872, 0.04115 µM	0.973 ± 0.041
SW872, 0.1235 µM	0.986 ± 0.05
SW872, 0.3704 µM	1.02 ± 0.044
SW872, 1.111 µM	1.04 ± 0.012
SW872, 3.333 µM	1.05 ± 0.031
SW872, 10 µM	1.03 ± 0.017
SYO-1, 0.00017 µM	0.934 ± 0.024
SYO-1, 0.00051 µM	0.937 ± 0.028
SYO-1, 0.00152 µM	0.94 ± 0.023
SYO-1, 0.00457 µM	0.927 ± 0.034
SYO-1, 0.01372 µM	0.9194 ± 0.0059
SYO-1, 0.04115 µM	0.914 ± 0.024
SYO-1, 0.1235 µM	0.906 ± 0.034
SYO-1, 0.3704 µM	0.903 ± 0.043
SYO-1, 1.111 µM	0.846 ± 0.032
SYO-1, 3.333 µM	0.673 ± 0.053
SYO-1, 10 µM	0.586 ± 0.015
VA-ES-BJ, 0.00017 µM	1.02 ± 0.034
VA-ES-BJ, 0.00051 µM	1.02 ± 0.046
VA-ES-BJ, 0.00152 µM	1.03 ± 0.06
VA-ES-BJ, 0.00457 µM	1.03 ± 0.042
VA-ES-BJ, 0.01372 µM	1.04 ± 0.039
VA-ES-BJ, 0.04115 µM	0.984 ± 0.029
VA-ES-BJ, 0.1235 µM	1.02 ± 0.035
VA-ES-BJ, 0.3704 µM	1.04 ± 0.024
VA-ES-BJ, 1.111 µM	1.07 ± 0.046
VA-ES-BJ, 3.333 µM	1.03 ± 0.013
VA-ES-BJ, 10 µM	0.983 ± 0.029
